Assay results as given in PubChem BioAssay (NCI).
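Assay format: 96-well plates, 48-hour exposure. TGI: concentration producing complete growth inhibition.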

Legend:
Test in all cases: NCI tumour cell line growth inhibition, 48 h
SN12C renal = test system: SN12C renal
KM12 colon = test system: KM12 colon
OVCAR-5 ovarian = test system: OVCAR-5 ovarian
SK-MEL-28 melanoma = test system: SK-MEL-28 melanoma
COLO 205 colon = test system: COLO 205 colon
U251 CNS = test system: U251 CNS
MCF7 breast = test system: MCF7 breast
NCI-H23 lung = test system: NCI-H23 lung
LOX IMVI melanoma = test system: LOX IMVI melanoma
K-562 leukemia = test system: K-562 leukemia
SK-MEL-2 melanoma = test system: SK-MEL-2 melanoma
786-0 renal = test system: 786-0 renal
HCC-2998 colon = test system: HCC-2998 colon
PC-3 prostate = test system: PC-3 prostate
SR leukemia = test system: SR leukemia
M14 melanoma = test system: M14 melanoma
OVCAR-4 ovarian = test system: OVCAR-4 ovarian
SW-620 colon = test system: SW-620 colon
DU-145 prostate = test system: DU-145 prostate
NCI-H460 lung = test system: NCI-H460 lung
SNB-75 CNS = test system: SNB-75 CNS
EKVX NSCLC = test system: EKVX NSCLC
HCT-15 colon = test system: HCT-15 colon
IGROV1 ovarian = test system: IGROV1 ovarian
MDA-MB-435 = test system: MDA-MB-435
HOP-92 NSCLC = test system: HOP-92 NSCLC
BT-549 breast = test system: BT-549 breast
SF-539 CNS = test system: SF-539 CNS
CAKI-1 renal = test system: CAKI-1 renal
NCI-H226 lung = test system: NCI-H226 lung
UACC-62 melanoma = test system: UACC-62 melanoma
UO-31 renal = test system: UO-31 renal
OVCAR-3 ovarian = test system: OVCAR-3 ovarian
MDA-N = test system: MDA-N
NCI/ADR-RES ovarian = test system: NCI/ADR-RES ovarian
SF-295 CNS = test system: SF-295 CNS
HCT-116 colon = test system: HCT-116 colon
HT29 colon = test system: HT29 colon
A498 renal = test system: A498 renal
T-47D breast = test system: T-47D breast
OVCAR-8 ovarian = test system: OVCAR-8 ovarian
RXF 393 renal = test system: RXF 393 renal
MDA-MB-231 breast = test system: MDA-MB-231 breast
ACHN renal = test system: ACHN renal
CCRF-CEM leukemia = test system: CCRF-CEM leukemia
A549 NSCLC = test system: A549 NSCLC
RPMI-8226 leukemia = test system: RPMI-8226 leukemia
UACC-257 melanoma = test system: UACC-257 melanoma
MOLT-4 leukemia = test system: MOLT-4 leukemia
HOP-62 NSCLC = test system: HOP-62 NSCLC
SK-MEL-5 melanoma = test system: SK-MEL-5 melanoma
SNB-19 CNS = test system: SNB-19 CNS
MALME-3M melanoma = test system: MALME-3M melanoma
HS 578T breast = test system: HS 578T breast
NCI-H522 lung = test system: NCI-H522 lung
SF-268 CNS = test system: SF-268 CNS

Cc1cn(C(C)OCCN2C(=O)c3ccccc3C2=O)c(=O)[nH]c1=O (stereo not drawn)
TGI (SN12C renal): > 100 µM
TGI (KM12 colon): > 100 µM
TGI (OVCAR-5 ovarian): > 100 µM
TGI (SK-MEL-28 melanoma): > 100 µM
TGI (COLO 205 colon): > 100 µM
TGI (U251 CNS): > 100 µM
TGI (MCF7 breast): > 100 µM
TGI (NCI-H23 lung): > 100 µM
TGI (LOX IMVI melanoma): > 100 µM
TGI (K-562 leukemia): > 100 µM
TGI (SK-MEL-2 melanoma): > 100 µM
TGI (786-0 renal): > 100 µM
TGI (HCC-2998 colon): > 100 µM
TGI (PC-3 prostate): > 100 µM
TGI (SR leukemia): > 100 µM
TGI (M14 melanoma): > 100 µM
TGI (OVCAR-4 ovarian): > 100 µM
TGI (SW-620 colon): > 100 µM
TGI (DU-145 prostate): > 100 µM
TGI (NCI-H460 lung): > 100 µM
TGI (SNB-75 CNS): > 100 µM
TGI (EKVX NSCLC): > 100 µM
TGI (HCT-15 colon): > 100 µM
TGI (IGROV1 ovarian): > 100 µM
TGI (MDA-MB-435): > 100 µM
TGI (HOP-92 NSCLC): > 100 µM
TGI (BT-549 breast): > 100 µM
TGI (SF-539 CNS): > 100 µM
TGI (CAKI-1 renal): > 100 µM
TGI (NCI-H226 lung): > 100 µM
TGI (UACC-62 melanoma): > 100 µM
TGI (UO-31 renal): > 100 µM
TGI (OVCAR-3 ovarian): > 100 µM
TGI (MDA-N): > 100 µM
TGI (NCI/ADR-RES ovarian): > 100 µM
TGI (SF-295 CNS): > 100 µM
TGI (HCT-116 colon): > 100 µM
TGI (HT29 colon): > 100 µM
TGI (A498 renal): > 100 µM
TGI (T-47D breast): > 100 µM
TGI (OVCAR-8 ovarian): > 100 µM
TGI (RXF 393 renal): > 100 µM
TGI (MDA-MB-231 breast): > 100 µM
TGI (ACHN renal): > 100 µM
TGI (CCRF-CEM leukemia): > 100 µM
TGI (A549 NSCLC): > 100 µM
TGI (RPMI-8226 leukemia): > 100 µM
TGI (UACC-257 melanoma): > 100 µM
TGI (MOLT-4 leukemia): > 100 µM
TGI (HOP-62 NSCLC): > 100 µM
TGI (SK-MEL-5 melanoma): > 100 µM
TGI (SNB-19 CNS): > 100 µM

CC(C)(C)[Si](C)(C)OCC1OC(n2cnc3c(N)ncnc32)C(O[Si](C)(C)C(C)(C)C)C1O[Si](C)(C)C(C)(C)C (stereo not drawn)
TGI (SN12C renal): 34.9 µM
TGI (COLO 205 colon): > 100 µM
TGI (LOX IMVI melanoma): 39.2 µM
TGI (SK-MEL-2 melanoma): 49.4 µM
TGI (786-0 renal): 18.6 µM
TGI (PC-3 prostate): 30 µM
TGI (MALME-3M melanoma): > 100 µM
TGI (SR leukemia): 86.7 µM
TGI (M14 melanoma): 67.4 µM
TGI (SW-620 colon): > 100 µM
TGI (DU-145 prostate): > 100 µM
TGI (NCI-H460 lung): 27.3 µM
TGI (SNB-75 CNS): 27.6 µM
TGI (EKVX NSCLC): 64.7 µM
TGI (HCT-15 colon): > 100 µM
TGI (IGROV1 ovarian): > 100 µM
TGI (HOP-92 NSCLC): > 100 µM
TGI (HS 578T breast): 58.5 µM
TGI (UACC-62 melanoma): 51.6 µM
TGI (OVCAR-3 ovarian): 13.8 µM
TGI (MDA-N): > 100 µM
TGI (NCI/ADR-RES ovarian): > 100 µM
TGI (SF-295 CNS): 62.3 µM
TGI (HCT-116 colon): 22.4 µM
TGI (HT29 colon): > 100 µM
TGI (T-47D breast): 46.4 µM
TGI (OVCAR-8 ovarian): 42 µM
TGI (MDA-MB-231 breast): 54.1 µM
TGI (NCI-H522 lung): 21.3 µM
TGI (ACHN renal): 27.2 µM
TGI (SF-268 CNS): 56.5 µM
TGI (A549 NSCLC): 48.5 µM
TGI (UACC-257 melanoma): > 100 µM
TGI (MOLT-4 leukemia): 12.8 µM
TGI (HOP-62 NSCLC): 46 µM
TGI (SK-MEL-5 melanoma): 14.4 µM
